Publication PMC4468408 (ACS Medicinal Chemistry Letters, 2015)
Like-named read-outs stand apart in the source and are kept apart here.

How the values were obtained:
[1] = stability in human S9 fraction; format: in vitro ADME
P-gp = P-gp substrate test in transfected MDCK cells; format: in vitro ADME
major human CYP isozymes = test: CYP inhibition; format: in vitro ADME
in vitro metabolism = format: in vitro ADME
[2] = pharmacokinetics in Sprague-Dawley rat; format: in vivo; conditions: IV 1 mg/kg, 10% 2-HP-β-CD
[3] = oral dosing of SD rats: exposure, GABAA related effects, toxicity; format: in vivo, SD rat; conditions: for effects attributable to GABAA binding (CNS effects): SD rats dosed orally; for toxicities observed at the maximum tolerated dose: SD rats, orally for seven consecutive days
[4] = Phase I; cited from earlier work
human tumor xenografts = conditions: cited from earlier work
[5] = brain total exposure in nude mice; conditions: for AUC brain (AUC0–8h) / brain Cmax: sodium salts PO 30 mg/kg

Row | SMILES | stability in human S9 fraction [1] | substrate of P-gp (P-gp) | IC50 (major human CYP isozymes; human) | in vitro metabolism (in vitro metabolism) | CL [2] | effects attributable to GABAA binding (CNS effects) [3] | toxicities observed at the maximum tolerated dose [3] | incidence of somnolence [4] | tumor growth inhibition (human tumor xenografts; multiple human tumor xenograft models) | AUC brain (AUC0–8h) [5] | brain Cmax [5] | brain AUC reduction ([5]; compared with MLN8054) | CYP inhibition (major human CYP isozymes; concentrations up to 100 μM) | tumor growth inhibition (human tumor xenografts; multiple xenograft efficacy models in immunocompromised mice)
1 | O=C(O)c1ccc(Nc2ncc3c(n2)-c2ccc(Cl)cc2C(c2ccccc2F)=NC3)cc1 [compound 7] | stable in human S9 fraction | – | – | – | – | – | – | – | – | – | – | – | – | –
2 | COc1cc(Nc2ncc3c(n2)-c2ccc(Cl)cc2C(c2c(F)cccc2OC)=NC3)ccc1C(=O)O [alisertib (10)] | – | not a substrate of P-gp | > 100 µM | low and is mediated through multiple CYP isoforms and UGTs | 10.4 mL min^–1 kg^–1 | No effects attributable to GABAA binding were observed | myelosuppression and mucositis | not dose limiting | significant tumor growth inhibition | 2000 ng·h/mL | 420 ng/mL | – | – | –
3 | COc1cccc(F)c1C1=NCc2cnc(Nc3ccc(C(=O)O)cc3)nc2-c2ccc(Cl)cc21 [compound 9] | – | – | – | – | – | No effects attributable to GABAA binding were observed | – | – | – | 3500 ng·h/mL | 930 ng/mL | 3 fold | – | –
4 | O=C(O)c1ccc(Nc2ncc3c(n2)-c2ccc(Cl)cc2C(c2c(F)cccc2F)=NC3)cc1 [MLN8054 (8)] | – | not a substrate of P-gp | – | predominantly through CYP1A2 and 3A4 | – | reversible central nervous system (CNS) effects | myelosuppression and mucositis | – | – | 12500 ng·h/mL | 2600 ng/mL | – | no CYP inhibition is observed | Significant tumor growth inhibition, with no overt toxicity
